According to article PMC7553383 (ACS Chemical Neuroscience, 2020):

Assays:
[1] = target: T1, GIRK1/4 channels (Homo sapiens, UniProt P48544+P48549); assay: Ligand-induced GIRK channel block in oocytes expressing GIRK channels in the absence of D2R; type: cell-based; conditions: for Ligand-induced GIRK channel block: 30 μM ligand, oocytes without D2R; for Current amplitude following application of ligand in the absence of D2R expression: oocytes injected with GIRK1 and GIRK4
T1 sequence (P48549 1-501): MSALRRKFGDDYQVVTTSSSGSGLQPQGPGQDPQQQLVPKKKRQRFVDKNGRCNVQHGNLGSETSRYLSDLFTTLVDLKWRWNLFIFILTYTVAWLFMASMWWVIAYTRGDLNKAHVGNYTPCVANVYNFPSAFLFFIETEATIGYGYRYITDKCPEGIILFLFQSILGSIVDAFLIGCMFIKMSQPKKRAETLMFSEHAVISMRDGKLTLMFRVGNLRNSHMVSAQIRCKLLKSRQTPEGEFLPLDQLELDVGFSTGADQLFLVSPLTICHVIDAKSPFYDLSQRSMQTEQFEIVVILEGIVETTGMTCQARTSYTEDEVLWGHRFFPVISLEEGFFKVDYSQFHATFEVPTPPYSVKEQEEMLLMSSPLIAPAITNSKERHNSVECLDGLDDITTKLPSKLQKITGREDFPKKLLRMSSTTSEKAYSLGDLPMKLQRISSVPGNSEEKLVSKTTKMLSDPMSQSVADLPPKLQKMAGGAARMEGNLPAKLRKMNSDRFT
T1 sequence (P48544 1-419): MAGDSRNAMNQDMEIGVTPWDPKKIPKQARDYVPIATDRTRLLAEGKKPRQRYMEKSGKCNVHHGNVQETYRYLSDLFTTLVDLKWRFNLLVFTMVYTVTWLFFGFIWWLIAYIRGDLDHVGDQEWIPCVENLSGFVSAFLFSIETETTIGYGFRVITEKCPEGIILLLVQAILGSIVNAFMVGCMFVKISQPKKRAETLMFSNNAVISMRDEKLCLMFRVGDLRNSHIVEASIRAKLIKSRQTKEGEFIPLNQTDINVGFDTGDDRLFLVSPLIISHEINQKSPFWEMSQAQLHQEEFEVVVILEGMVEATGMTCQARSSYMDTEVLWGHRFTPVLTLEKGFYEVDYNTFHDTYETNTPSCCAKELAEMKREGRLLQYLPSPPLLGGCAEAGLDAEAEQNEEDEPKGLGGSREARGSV
Source text: Figure S1. Effect of competing ligands on GIRK currents in the absence of D2R expression. Current
Figure S2. Intrinsic activities of aripiprazole analogues at WT D2R. Agonist responses of SWR-1-8, SV-III- […]

[2] = target: T2, D2R WT (Homo sapiens, UniProt P14416); assay: G protein-coupled inward rectifier potassium (GIRK) channel activation assay in Xenopus oocytes coexpressing D2R, RGS4 and GIRK1/4
T2 sequence (P14416 whole entry): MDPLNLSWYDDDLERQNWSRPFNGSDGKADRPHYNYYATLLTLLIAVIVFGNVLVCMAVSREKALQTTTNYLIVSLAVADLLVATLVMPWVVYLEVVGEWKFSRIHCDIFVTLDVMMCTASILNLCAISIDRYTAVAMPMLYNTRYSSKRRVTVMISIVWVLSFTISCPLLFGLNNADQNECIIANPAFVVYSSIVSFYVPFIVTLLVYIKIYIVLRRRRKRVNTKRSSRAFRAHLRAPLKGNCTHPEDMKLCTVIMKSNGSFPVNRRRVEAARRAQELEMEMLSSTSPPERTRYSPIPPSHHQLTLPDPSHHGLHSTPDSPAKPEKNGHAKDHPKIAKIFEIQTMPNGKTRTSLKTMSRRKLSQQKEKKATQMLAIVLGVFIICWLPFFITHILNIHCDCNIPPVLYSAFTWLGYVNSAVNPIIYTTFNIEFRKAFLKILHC

[3] = target: T2, D2R WT; assay: cell-based
[4] = target: T3, D2R (Homo sapiens, UniProt P14416); assay: BRET beta-arrestin2 recruitment curve-shift assay in transfected HEK293 cells; type: cell-based; conditions: 5 min preincubation with antagonist before dopamine
T3 construct: expressed in transfected cells
T3 sequence (P14416 whole entry): as above

Row | Structure (SMILES) | Ligand-induced GIRK channel block [1] [%] | Current amplitude following application of ligand in the absence of D2R expression ([1]; 30 µM ligand) | Current amplitude following application of ligand in the absence of D2R expression ([1]; 1 µM ligand) | Kd [2] [nM] | koff [2] [s⁻¹] | intrinsic activity in the GIRK activation assay (in words) ([2]; WT D2R, normalized to 1 μM DA) | Ki [3] [nM] | mode of antagonism of DA-induced beta-arrestin2 recruitment [4]
1 | COc1ccccc1N1CCN(CCCCCOc2ccc3c(c2)NC(=O)CC3)CC1 [SWR-1-14] | < 10 | 0.90 ± 0.01 |  |  |  |  |  | 
2 | COc1ccccc1N1CCN(CCCCOc2ccc3c(c2)NC(=O)CC3)CC1 [SV-III-130] | < 10 |  | 1.00 ± 0.02 |  |  |  |  | 
3 | COc1ccccc1N1CCN(CCCOc2ccc3c(c2)NC(=O)CC3)CC1 [SWR-1-8] | < 10 | 0.99 ± 0.06 |  | 50.1 | 0.017 ± 0.002 | antagonists/inverse agonists | 9.77 | competitive antagonism
